Source: patent US11358950B2, “SMAC mimetics used as IAP inhibitors and use thereof” (CHIA TAI TIANQING PHARMACEUTICAL GROUP CO., LTD., priority 2017, dated 2022)

Key:
[1] = test system: MDA-MB-231 triple-negative breast cancer CDX; test: In-vivo drug efficacy study 1, MDA-MB-231 CDX model; design: species or system BALB/c nude mice
Experimental: (§1) The in-vivo drug efficacy experiments were carried out in BALB/c nude mice implanted subcutaneously with human tumor cell line-derived xenograft (CDX) derived from patients suffering from MDA-MB-231 triple-negative breast cancer.
(§2) BALB/c nude mice, female, 6 to 8 weeks old, weighing about 18 to 22 g, were kept in a special pathogen-free environment and in separated ventilated cages (3 mice per cage). All cages, bedding and water were disinfected before use. All animals had free access to standard certified commercial laboratory diets. A total of 48 mice purchased from Shanghai BK Laboratory Animal Co., LTD were used for the study. Each mouse was inoculated subcutaneously in the right flank with tumor cells (10×10^6 cells in 0.2 mL of a phosphate buffer) for tumor growth. The administration was initiated when the average tumor volume reached about 147 cubic millimeters. The test compounds were orally administered daily at a dose of 30 mg/kg. Tumor volumes were measured with a two-dimensional caliper every 3 days. The volume was measured in cubic millimeters and calculated by the following formula: V=0.5 a×b^2, where a and b were the long and short diameters of a tumor, respectively. Anti-tumor efficacy was determined by dividing the average increase in tumor volume of animals treated with a compound by the average increase in tumor volume of untreated animals.

[2] = test system: MDA-MB-231 cells; test: In-vitro cell viability test (CellTiter-Glo, 7 days); assay type: cell-based; conditions: Homo sapiens, 168 h, 7 days incubation
Experimental: RPMI 1640 medium (Invitrogen-22400089); fetal bovine serum (Invitrogen-10099141); Trypsin, 0.05% (1×) with EDTA 4Na (Invitrogen-25300062); luminescent cell viability assay kit (Promega-G7573); Dulbecco's phosphate buffered saline (HyClone-SH30028.01B); and 384-well plate (Corning-6007680). Envision Multi-label Analyzer.
1. 30 μL of MDA-MB-231 cell suspension, which contained 250 MDA-MB-231 cells, was added into the wells of a 384-microwell plate.
2. 20 μL of a test compound (the test compounds were formulated at a high concentration of 10 μM, the test compounds were subjected to a 5-fold gradient dilution, and each compound was diluted to 10 concentration gradients) was added, and then the cell plate was put back into a carbon dioxide incubator to be incubated for 7 days.
3. The cell plate was kept flat at room temperature for 30 minutes.
4. 20 μL of a Promega CellTiter-Glo reagent was added into each well of the cell plate.
5. After 10 minutes, the Envision Multi-label Analyzer was used for data reading.

[3] = test system: MDA-MB-231 triple-negative breast cancer CDX; test: In-vivo drug efficacy study 2, MDA-MB-231 CDX model; design: species or system BALB/c nude mice
Experimental: as §1
as §2, with “110” for “147”

With `CN[C@@H](C)C(=O)N[C@H](C(=O)N1CCC[C@H]1Cn1cc(C(C)=O)c2cc(Cl)ccc21)C1CCCCC1` [Example 2] the “Tumor volume” value ([1]; Day 0, 30 mg/kg oral daily) was 147 mm^3, the “Tumor volume” value ([1]; Day 6, 30 mg/kg oral daily) was 214 mm^3 and the “Tumor volume” value ([1]; Day 13, 30 mg/kg oral daily) was 282 mm^3. The “Tumor volume” value ([1]; Day 20, 30 mg/kg oral daily) was 810 mm^3, the IC50 [2] was 54.8 nM and the Tumor volume ([3]; Day 0, 30 mg/kg oral daily) was 110 mm^3. For the same molecule, the Tumor volume ([3]; Day 5, 30 mg/kg oral daily) was 111 mm^3, the Tumor volume ([3]; Day 12, 30 mg/kg oral daily) was 86 mm^3 and the Tumor volume ([3]; Day 20, 30 mg/kg oral daily) was 177 mm^3.
